Measured values taken from article PMC10514136, “Peptide-conjugated antimiRs improve myotonic dystrophy type 1 phenotypes by promoting endogenous MBNL1 expression” (Molecular Therapy. Nucleic Acids, 2023).

System: HSALR mice
Assay: Histology, percentage of muscle fibers with central nuclei
Assay type: in vivo, mouse
Settings: 9.2 mg/kg (mean) i.v. every 2 weeks x3, day 45
From the text: Mouse handling and experimental procedures followed the European law regarding laboratory animal care and experimentation (2003/65/C.E.) and were approved by Conselleria de Agricultura, Generalitat Valenciana (reference no. A1539961490857). We used homozygous transgenic HSA^LR (line 20 b) mice,[90] which were kindly provided by Dr Thornton (Rochester, NY) and were housed and bred in our animal facility. Experimental groups were FVB as healthy control and HSA^LR treated with a scrambled ON (SC) and PBS as negative controls, and HSA^LR mice treated with all six experimental CPP-PMOs. The mice were randomly allocated to the different treatments as follows: in each cage, each mouse was ear-marked as it was taken out, and each mouse was then assigned to a different treatment. […]
Frozen 15-μm sections of mouse gastrocnemius and quadriceps muscles were stained with hematoxylin and eosin and mounted with DPX Mountant for histology (Sigma) according to standard procedures. […] The percentage of fibers containing central nuclei was quantified in a total of 200 fibers in each mouse.

## TCTTACCTCAGTTACAATTTA-Pip9b2 [Scramble, reference compound]
  muscle fibers with central nuclei vs PBS-injected mice: did not differ significantly from PBS-injected ones
